Molecular target: T1, human liver glycogen phosphorylase a (HLGPa) (Homo sapiens, UniProt P06737)
T1 construct: creating a full-length cDNA fused at the 5′ end to codons for methionine-glycine-alanine-histidine; 6xHis tag (leader Met-Gly-Ala-His6-Gly-Gly) (N); made in house; host or cells: E. coli (bacterial expression plasmid pTXK1007LTev)
T1 sequence (P06737 2-847 limits assumed): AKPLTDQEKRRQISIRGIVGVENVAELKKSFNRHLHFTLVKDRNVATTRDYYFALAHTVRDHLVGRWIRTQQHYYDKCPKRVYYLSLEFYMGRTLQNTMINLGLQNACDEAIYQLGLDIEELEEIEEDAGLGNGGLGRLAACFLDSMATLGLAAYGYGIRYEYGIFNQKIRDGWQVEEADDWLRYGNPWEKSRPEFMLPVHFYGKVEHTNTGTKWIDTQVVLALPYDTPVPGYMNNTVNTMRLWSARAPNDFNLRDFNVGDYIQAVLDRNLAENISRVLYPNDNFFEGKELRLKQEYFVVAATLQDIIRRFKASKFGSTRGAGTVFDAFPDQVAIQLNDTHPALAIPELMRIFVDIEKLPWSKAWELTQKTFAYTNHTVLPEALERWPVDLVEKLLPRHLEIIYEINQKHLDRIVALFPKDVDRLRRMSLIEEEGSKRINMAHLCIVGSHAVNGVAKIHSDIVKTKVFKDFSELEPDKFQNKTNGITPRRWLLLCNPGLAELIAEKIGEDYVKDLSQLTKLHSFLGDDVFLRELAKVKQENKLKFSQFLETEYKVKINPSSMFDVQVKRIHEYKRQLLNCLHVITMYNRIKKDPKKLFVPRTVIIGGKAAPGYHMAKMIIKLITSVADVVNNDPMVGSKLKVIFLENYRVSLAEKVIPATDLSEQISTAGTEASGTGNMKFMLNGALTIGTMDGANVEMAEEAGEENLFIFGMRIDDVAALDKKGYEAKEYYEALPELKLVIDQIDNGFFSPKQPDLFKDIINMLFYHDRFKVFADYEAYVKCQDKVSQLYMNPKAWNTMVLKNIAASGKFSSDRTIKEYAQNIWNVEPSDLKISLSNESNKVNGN
Assay: Human liver glycogen phosphorylase a enzymatic activity assay (coupled, fluorescent resorufin readout, with and without 10 mM glucose)
Type: biochemical
Conditions: human liver glycogen phosphorylase a enzymatic activity assay

| IC50 | SMILES |
| --- | --- |
| 230 nM | O=C(O)C[C@H](NC(=O)c1cc2ccccc2cc1NC(=O)Nc1c(Cl)cccc1Cl)C(=O)O [Example 148, N-{[3-({[(2,6-dichlorophenyl)amino]carbonyl}amino)-2-naphthalenyl]carbonyl}-L-aspartic acid] |
| 5020 nM | O=C(O)C[C@H](NC(=O)c1cc2ccccc2cc1NC(=O)Nc1c(F)cccc1F)C(=O)O [Example 149, N-{[3-({[(2,6-difluorophenyl)amino]carbonyl}amino)-2-naphthalenyl]carbonyl}-L-aspartic acid] |
| 1550 nM | O=C(O)C[C@H](NC(=O)c1cc2ccccc2cc1NC(=O)Nc1ccccc1Cl)C(=O)O [Example 151, N-{[3-({[(2-chlorophenyl)amino]carbonyl}amino)-2-naphthalenyl]carbonyl}-L-aspartic acid] |
| 4850 nM | O=C(Nc1cc2ccccc2cc1C(=O)N[C@H](C(=O)O)C1CCCCC1)Nc1c(F)cccc1F [Example 153, (2S)-cyclohexyl({[3-({[(2,6-difluorophenyl)amino]carbonyl}amino)-2-naphthalenyl]carbonyl}amino)ethanoic acid] |
| 6800 nM | O=C(Cc1c(Cl)cccc1Cl)Nc1cc2ccccc2cc1C(=O)N[C@H](C(=O)O)C1CCCCC1 [Example 155, (2S)-cyclohexyl{[(3-{[(2,6-dichlorophenyl)acetyl]amino}-2-naphthalenyl)carbonyl]amino}ethanoic acid] |
| 82 nM | O=C(Nc1cc(Cl)ccc1C(=O)N[C@H](C(=O)O)C1CCCCC1)Nc1c(Cl)cccc1Cl [Example 156, (2S)({[4chloro2({[(2,6dichlorophenyl)amino]carbonyl}amino)phenyl]carbonyl}amino)(cyclohexyl)ethanoic acid] |
| 242 nM | Cc1cccc(C)c1NC(=O)Nc1cc(Cl)ccc1C(=O)N[C@H](C(=O)O)C1CCCCC1 [Example 157, (2S)-({[4-chloro-2-({[(2,6-dimethylphenyl)amino]carbonyl}amino)phenyl]carbonyl}amino)(cyclohexyl)ethanoic acid] |
| 58 nM | CCc1cccc(C)c1NC(=O)Nc1cc2ccccc2cc1C(=O)N[C@H](C(=O)O)C1CCCCC1 [Example 159, (2S)-cyclohexyl{[3-({[(2-ethyl-6-methylphenyl)amino]carbonyl}amino)-2-naphthoyl]amino}ethanoic acid] |
| 68 nM | O=C(Nc1cc2ccccc2cc1C(=O)N[C@H](C(=O)O)C1CCCCC1)Nc1c(Cl)cccc1C(F)(F)F [Example 160, (2S)-({3-[({[2-chloro-6-(trifluoromethyl)phenyl]amino}carbonyl)amino]-2-naphthoyl}amino)(cyclohexyl)ethanoic acid] |
| 110 nM | O=C(Cc1c(Cl)cc(C(F)(F)F)cc1Cl)Nc1cc2ccccc2cc1C(=O)N[C@H](C(=O)O)C1CCCCC1 [Example 161, (2S)-cyclohexyl{[3-({[2,6-dichloro-4-(trifluoromethyl)phenyl]acetyl}amino)-2-naphthoyl]amino}ethanoic acid] |
| 46 nM | O=C(Cc1c(Cl)cc(Cl)cc1Cl)Nc1cc2ccccc2cc1C(=O)N[C@H](C(=O)O)C1CCCCC1 [Example 162, (2S)-cyclohexyl[(3-{[(2,4,6-trichlorophenyl)acetyl]amino}-2-naphthoyl)amino]ethanoic acid] |
| 509 nM | Cc1cccc(C)c1NC(=O)Nc1cc2ccccc2cc1C(=O)NCCC(=O)O [Example 163, N-[3-({[(2,6-dimethylphenyl)amino]carbonyl}amino)-2-naphthoyl]-beta-alanine] |
| 15100 nM | O=C(Nc1cc(Cl)ccc1C(=O)O)Nc1c(Cl)cccc1Cl [Example 165, 4-Chloro-2-({[(2,6-dichlorophenyl)amino]carbonyl}amino)benzoic acid] |
| 8640 nM | Cc1cccc(C)c1NC(=O)Nc1cc(Cl)ccc1C(=O)O [Example 166] |
| 390 nM | Cc1cccc(C)c1NC(=O)Nc1cc(Cl)ccc1C(=O)N[C@H](C(=O)O)C1CCCCC1 [Example 167, (2S)-({[4-Chloro-2-({[(2,6-dimethylphenyl)amino]carbonyl}amino)phenyl]carbonyl}amino)(cyclohexyl)-ethanoic acid] |
| 200 nM | O=C(Nc1cc(Cl)ccc1C(=O)N[C@H](C(=O)O)C1CCCCC1)Nc1c(Cl)cccc1Cl [Example 168, (2S)-({[4-Chloro-2-({[(2,6-dichlorophenyl)amino]carbonyl}amino)phenyl]carbonyl}amino)(cyclohexyl)-ethanoic acid] |
| 680 nM | Cc1ccc(NC(=O)Nc2c(C)cccc2C)c(C(=O)N[C@H](C(=O)O)C2CCCCC2)c1 [Example 169, (2S)Cyclohexyl({[2({[(2,6dimethylphenyl)amino]carbonyl}amino)-5-methylphenyl]carbonyl}amino)ethanoic acid] |
| 2910 nM | Cc1cccc(C)c1NC(=O)Nc1cc(Cl)ccc1C(=O)NCC(=O)O [Example 170, N{[4chloro2({[(2,6dimethylphenyl)amino]carbonyl}amino)phenyl]carbonyl}glycine] |
| 330 nM | O=C(Nc1cc(Cl)ccc1C(=O)N[C@H](C(=O)O)C1CCCCC1)Nc1c(Cl)cc(Cl)cc1Cl [Example 171, (2S)-({[4-Chloro-2-({[(2,4,6-trichlorophenyl)amino]carbonyl}amino)phenyl]carbonyl}amino)(cyclohexyl)-ethanoic acid] |
| 180 nM | Cc1cccc(Cl)c1NC(=O)Nc1cc(Cl)ccc1C(=O)N[C@H](C(=O)O)C1CCCCC1 [Example 172, (2S)-({[4-Chloro-2-({[(2-chloro-6-methylphenyl)amino]carbonyl}-amino)phenyl]carbonyl}amino)(cyclohexyl)ethanoic acid] |
| 310 nM | Cc1cccc(C)c1NC(=O)Nc1cc(Br)ccc1C(=O)N[C@H](C(=O)O)C1CCCCC1 [Example 173, (2S)-({[4-Bromo-2-({[(2,6-dimethylphenyl)amino]carbonyl}amino)phenyl]carbonyl}amino)(cyclohexyl)-ethanoic acid] |
| 770 nM | Cc1cccc(C)c1NC(=O)Nc1cc(Cl)ccc1C(=O)N[C@@H](CC(=O)O)C(=O)O [Example 174, N-{[4-Chloro-2-({[(2,6-dimethylphenyl)amino]carbonyl}amino)phenyl]carbonyl}-L-aspartic acid] |
| 163 nM | Cc1cccc(C)c1NC(=O)Nc1cc(-c2ccccc2)ccc1C(=O)N[C@H](C(=O)O)C1CCCCC1 [Example 175, (2S)-Cyclohexyl({[3-({[(2,6-dimethylphenyl)amino]carbonyl}amino)-4-biphenylyl]carbonyl}amino)ethanoic acid] |
| 750 nM | Cc1ccc(C(=O)N[C@H](C(=O)O)C2CCCCC2)c(NC(=O)Nc2c(C)cccc2C)c1 [Example 176, (2S)-cyclohexyl({[2-({[(2,6-dimethylphenyl)amino]carbonyl}amino)-4-methylphenyl]carbonyl}amino)ethanoic acid] |
| 100 nM | O=C(Nc1cc(Cl)c(Cl)cc1C(=O)N[C@H](C(=O)O)C1CCCCC1)Nc1c(Cl)cccc1Cl [Example 177, (2S)-Cyclohexyl({[4,5-dichloro-2-({[(2,6-dichlorophenyl)amino]-carbonyl}amino)phenyl]carbonyl}amino)ethanoic acid] |
| 2330 nM | Cc1cccc(C)c1NC(=O)Nc1cc(C(F)(F)F)ccc1C(=O)N[C@H](C(=O)O)C1CCCCC1 [Example 178, (2S)-cyclohexyl({[2-({[(2,6-dimethylphenyl)amino]carbonyl}amino)-4-(trifluoromethyl)phenyl]carbonyl}amino)ethanoic acid] |
| 35 nM | Cc1cc(C)c(NC(=O)Nc2cc(Cl)ccc2C(=O)N[C@H](C(=O)O)C2CCCCC2)c(C)c1 [Example 179, (2S)-({[4-Chloro-2-({[(2,4,6-trimethylphenyl)amino]carbonyl}-amino)phenyl]carbonyl}amino)(cyclohexyl)ethanoic acid] |
| 94 nM | Cc1cccc(C)c1NC(=O)Nc1cc(Cl)c(Cl)cc1C(=O)N[C@H](C(=O)O)C1CCCCC1 [Example 180, (2S)-Cyclohexyl({[4,5-dichloro-2-({[(2,6-dimethylphenyl)amino]carbonyl}amino)phenyl]carbonyl}amino)ethanoic acid] |
| 99 nM | Cc1cccc(C)c1NC(=O)Nc1cc(-c2cccnc2)ccc1C(=O)N[C@H](C(=O)O)C1CCCCC1 [Example 181, (2S)-Cyclohexyl({[2-({[(2,6-dimethylphenyl)amino]carbonyl}amino)-4-(3-pyridinyl)phenyl]carbonyl}amino)ethanoic acid] |
| 17 nM | Cc1cc(C)c(NC(=O)Nc2cc(-c3ccccc3)ccc2C(=O)N[C@H](C(=O)O)C2CCCCC2)c(C)c1 [Example 182, (2S)-Cyclohexyl({[3-({[(2,4,6-trimethylphenyl)amino]carbonyl}-amino)-4-biphenylyl]carbonyl}amino)ethanoic acid] |
